From US20240190860A1, “8-CYCLO-SUBSTITUTED QUINAZOLINE DERIVATIVES AS LPA RECEPTOR 2 INHIBITORS” (CHIESI FARMACEUTICI S.p.A., priority 2021, published 2024) come the findings set out here.

pIC50: −log10 of the molar value. Where two headings read alike, the source gives them in different places.

For the assay, the target named is T1, human recombinant LPA2 expressed in CHO cells (Homo sapiens, UniProt Q9HBW0).
T1 construct: expressed in transfected cells; host or cells: CHO cells (CHO-hLPA2 cell line)
T1 sequence (Q9HBW0 whole entry): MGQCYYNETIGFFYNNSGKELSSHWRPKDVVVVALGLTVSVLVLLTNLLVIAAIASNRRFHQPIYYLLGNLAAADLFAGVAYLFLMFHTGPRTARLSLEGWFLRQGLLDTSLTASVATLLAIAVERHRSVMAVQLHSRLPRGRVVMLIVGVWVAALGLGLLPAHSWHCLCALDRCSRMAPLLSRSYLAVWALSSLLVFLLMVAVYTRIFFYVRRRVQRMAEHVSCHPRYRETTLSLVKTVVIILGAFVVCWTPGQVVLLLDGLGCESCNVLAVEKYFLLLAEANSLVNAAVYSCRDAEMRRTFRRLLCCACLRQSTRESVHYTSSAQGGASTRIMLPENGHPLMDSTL
The experiment in a line: FLIPR calcium mobilization assay, LPA2 antagonism in CHO-hLPA2 cells. It is filed as cell-based. A digest of the protocol:
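Antagonist potency from four-parameter logistic fit (pIC50) of % inhibition of peak Ca2+ signal evoked by an EC80 LPA challenge. Before challenge, hLPA2-CHO cells were dye-loaded (5 μM Cal-520 AM, 2.5 mM probenecid, pH 7.4 HEPES buffer, 30 min, 37° C) and exposed 30 min to compound at 11 concentrations, 0.5% DMSO final.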
On the technique in general: Calcium assays in cells follow changes in intracellular calcium, usually with a dye or a luminescent sensor.

Where [1] appears, read: CHO-hLPA2 cells, inhibition of LPA EC80 Ca2+ response, 30 min pre-incubation, read-out: LPA2 IC50.

As a reminder, the pIC50 is the IC50 on a negative log10 scale, so that one unit is a factor of ten. For the compound `COC(=O)Nc1nc(C)c(S(=O)(=O)N2CCN(C[C@H](C)Nc3ncnc4c(-c5cc(C)ncn5)cccc34)CC2)s1` [Example 95, methyl N-[4-methyl-5-({4-[(2S)-2-{[8-(6-methylpyrimidin-4-yl)quinazolin-4-yl]amino}propyl]piperazin-1-yl}sulfonyl)-1,3-thiazol-2-yl]carbamate], under setting [1], the pIC50 was 7.00 to 8.00.
For the compound `C[C@@H](CN1CCN(S(=O)(=O)c2ccc3c(c2)sc(=O)n3C)CC1)Nc1ncnc2c(-c3ccc(F)c(CN(C)C)c3)cccc12` [Example 96, 6-({4-[(2S)-2-[(8-{3-[(dimethylamino)methyl]-4-fluorophenyl}quinazolin-4-yl)amino]propyl]piperazin-1-yl}sulfonyl)-3-methyl-2,3-dihydro-1,3-benzothiazol-2-one], the negative logarithm of the IC50 (pIC50) under setting [1] is more than 8.00.
Still for that read-out and setting: next, `C[C@@H](CN1CCN(S(=O)(=O)c2ccc3[nH]c(=O)sc3c2)CC1)Nc1ncnc2c(-c3ccc(F)c(CN(C)C)c3)cccc12` [Example 97, 6-({4-[(2S)-2-[(8-{3-[(dimethylamino)methyl]-4-fluorophenyl}quinazolin-4-yl)amino]propyl]piperazin-1-yl}sulfonyl)-2,3-dihydro-1,3-benzothiazol-2-one]: more than 8.00; `Cc1nc(C)c(-c2cccc3c(N[C@@H](C)CN4CCN(S(=O)(=O)c5ccc6[nH]c(=O)sc6c5)CC4)ncnc23)s1` [Example 98, 6-({4-[(2S)-2-{[8-(2,4-dimethyl-1,3-thiazol-5-yl)quinazolin-4-yl]amino}propyl]piperazin-1-yl}sulfonyl)-2,3-dihydro-1,3-benzothiazol-2-one]: more than 8.00.
Consider `Cc1ccc(-c2cccc3c(N[C@@H](C)CN4CCN(S(=O)(=O)c5ccc6nc(C)sc6c5)CC4)ncnc23)cn1` [Example 99, N-[(2S)-1-{4-[(2-methyl-1,3-benzothiazol-6-yl)sulfonyl]piperazin-1-yl}propan-2-yl]-8-(6-methylpyridin-3-yl)quinazolin-4-amine], for which, under setting [1], the negative-log IC50 (pIC50) was 7.00 to 8.00.
Same read-out and setting: in the case of `Cc1ccc(-c2cccc3c(N[C@@H](C)CN4CCN(S(=O)(=O)c5ccc6c(c5)sc(=O)n6C)CC4)ncnc23)cn1` [Example 100, 3-methyl-6-({4-[(2S)-2-{[8-(6-methylpyridin-3-yl)quinazolin-4-yl]amino}propyl]piperazin-1-yl}sulfonyl)-2,3-dihydro-1,3-benzothiazol-2-one] it was 7.00 to 8.00.
The same measure, in the same setting: in the case of `COC(=O)Nc1nc(C)c(S(=O)(=O)N2CCN(C[C@H](C)Nc3ncnc4c(-c5c(C)nn(CCN(C)C)c5C)cccc34)CC2)s1` [Example 101, methyl N-[5-({4-[(2S)-2-[(8-{1-[2-(dimethylamino)ethyl]-3,5-dimethyl-1H-pyrazol-4-yl}quinazolin-4-yl)amino]propyl]piperazin-1-yl}sulfonyl)-4-methyl-1,3-thiazol-2-yl]carbamate] it was more than 8.00.
The same measure, in the same setting: next, `COC(=O)Nc1nc(C)c(S(=O)(=O)N2CCN(C[C@H](C)Nc3ncnc4c(-c5cn(CCN(C)C)nc5C(F)(F)F)cccc34)CC2)s1` [Example 102, methyl N-[5-({4-[(2S)-2-[(8-{1-[2-(dimethylamino)ethyl]-3-(trifluoromethyl)-1H-pyrazol-4-yl}quinazolin-4-yl)amino]propyl]piperazin-1-yl}sulfonyl)-4-methyl-1,3-thiazol-2-yl]carbamate]: more than 8.00; `C[C@@H](CN1CCN(S(=O)(=O)c2ccccn2)CC1)Nc1ncnc2c(-c3cn(C)nc3C(F)(F)F)cccc12` [Example 103, 8-[1-methyl-3-(trifluoromethyl)-1H-pyrazol-4-yl]-N-[(2S)-1-[4-(pyridine-2-sulfonyl)piperazin-1-yl]propan-2-yl]quinazolin-4-amine]: 7.00 to 8.00; `C[C@@H](CN1CCN(S(=O)(=O)c2cccnc2)CC1)Nc1ncnc2c(-c3cn(C)nc3C(F)(F)F)cccc12` [Example 104, 8-[1-methyl-3-(trifluoromethyl)-1H-pyrazol-4-yl]-N-[(2S)-1-[4-(pyridine-3-sulfonyl)piperazin-1-yl]propan-2-yl]quinazolin-4-amine]: 7.00 to 8.00.
Consider `Cc1nc2ccc(S(=O)(=O)N3CCN(C[C@H](C)Nc4ncnc5c(-c6ccc(F)c(CN(C)C)c6)cccc45)CC3)cc2s1` [Example 105, 8-{3-[(dimethylamino)methyl]-4-fluorophenyl}-N-[(2S)-1-{4-[(2-methyl-1,3-benzothiazol-6-yl)sulfonyl]piperazin-1-yl}propan-2-yl]quinazolin-4-amine], for which the negative logarithm of the IC50 (pIC50) under setting [1] is more than 8.00.
On to `COC(=O)Nc1nc(C)c(S(=O)(=O)N2CCN(C[C@H](C)Nc3ncnc4ncccc34)CC2)s1` [comparative Example A, Methyl (S)-(4-methyl-5-((4-(2-(pyrido[2,3-d]pyrimidin-4 ylamino)propyl)piperazin-1-yl)sulfonyl)thiazol-2-yl)carbamate, reference compound], for which the negative-log IC50 (pIC50) (comparative compound, same in vitro assay, stated inactive on receptor LPA2, read-out: IC50 on LPA2 receptor) was less than 5.52.
